Measured values reported in ChEMBL document CHEMBL3046469, “Fungicidal Activities of 2-(Substituted Phenoxymethyl)phenyl-2-methoxyiminoacaetamide Derivatives” (1998).

Key:
Format in all cases: functional
Botrytis cinerea [1] = assay: Fungicidal activity against Botryotinia fuckeliana assessed as cucumber gray mold disease control at 125 ppm foliar application […] at 22 +/- 2 degC by preventive manner
Pyricularia oryzae [2] = assay: Fungicidal activity against Magnaporthe oryzae assessed as rice blast disease control at 125 ppm foliar application for 24 hr before inoculation at 27 +/- 2 degC measured after 5 days by preventive manner
[3] = test system: Pseudoperonospora cubensis; assay: Fungicidal activity against Pseudoperonospora cubensis assessed as cucumber downy mildew disease control at 125 ppm foliar application 24 hr before inoculation onto the adaxial(treated) surface of leaf by preventive manner
Podosphaera fuliginea [4] = assay: Fungicidal activity against Podosphaera fuliginea assessed as cucumber powdery mildew control at 125 ppm foliar application 24 hr before inoculation at 23 +/- 2 degC by preventive manner
[5] = test system: Blumeria graminis f. sp. tritici; assay: Fungicidal activity against Blumeria graminis f. sp. tritici assessed as wheat powdery mildew disease control at 125 ppm foliar application for 48 hr before inoculation by preventive manner
[6] = test system: Pseudoperonospora cubensis; assay: Fungicidal activity against Pseudoperonospora cubensis assessed as cucumber downy mildew disease control at 125 ppm foliar application 24 hr before inoculation onto the abaxial(untreated) surface of leaf by preventive manner
Thanatephorus cucumeris [7] = assay: Fungicidal activity against Thanatephorus cucumeris assessed as rice sheath blight disease control at 125 ppm foliar application for 24 hr before inoculation at 26 +/- 2 degC measured after 5 days by preventive manner
[8] = test system: Blumeria graminis f. sp. tritici; assay: Fungicidal activity against Blumeria graminis f. sp. tritici assessed as wheat powdery mildew disease control at 2 ppm foliar application for 48 hr before inoculation by preventive manner
Podosphaera fuliginea [9] = assay: Fungicidal activity against Podosphaera fuliginea assessed as cucumber powdery mildew control at 7.8 ppm foliar application 24 hr before inoculation at 23 +/- 2 degC by preventive manner
Botrytis cinerea [10] = assay: Fungicidal activity against Botryotinia fuckeliana assessed as cucumber gray mold disease control at 7.8 ppm foliar application […] at 22 +/- 2 degC by preventive manner
[11] = test system: Pseudoperonospora cubensis; assay: Fungicidal activity against Pseudoperonospora cubensis assessed as cucumber downy mildew disease control at 7.8 ppm foliar application 24 hr before inoculation onto the adaxial(treated) surface of leaf by preventive manner
Pyricularia oryzae [12] = assay: Fungicidal activity against Magnaporthe oryzae assessed as rice blast disease control at 31.3 ppm foliar application for 24 hr before inoculation at 27 +/- 2 degC measured after 5 days by preventive manner
[13] = test system: Pseudoperonospora cubensis; assay: Fungicidal activity against Pseudoperonospora cubensis assessed as cucumber downy mildew disease control at 31.3 ppm foliar application 24 hr before inoculation onto the abaxial(untreated) surface of leaf by preventive manner
[14] = test system: Pseudoperonospora cubensis; assay: Fungicidal activity against Pseudoperonospora cubensis assessed as cucumber downy mildew disease control at 2 ppm foliar application 24 hr before inoculation onto the adaxial(treated) surface of leaf by preventive manner
Thanatephorus cucumeris [15] = assay: Fungicidal activity against Thanatephorus cucumeris assessed as rice sheath blight disease control at 31.3 ppm foliar application for 24 hr before inoculation at 26 +/- 2 degC measured after 5 days by preventive manner
[16] = test system: Blumeria graminis f. sp. tritici; assay: Fungicidal activity against Blumeria graminis f. sp. tritici assessed as wheat powdery mildew disease control at 31.3 ppm foliar application for 48 hr before inoculation by preventive manner
Podosphaera fuliginea [17] = assay: Fungicidal activity against Podosphaera fuliginea assessed as cucumber powdery mildew control at 2 ppm foliar application 24 hr before inoculation at 23 +/- 2 degC by preventive manner
[18] = test system: Blumeria graminis f. sp. tritici; assay: Fungicidal activity against Blumeria graminis f. sp. tritici assessed as wheat powdery mildew disease control at 7.8 ppm foliar application 48 24 hr before inoculation by preventive manner
Botrytis cinerea [19] = assay: Fungicidal activity against Botryotinia fuckeliana assessed as cucumber gray mold disease control at 31.3 ppm foliar application […] at 22 +/- 2 degC by preventive manner
[20] = test system: Pseudoperonospora cubensis; assay: Fungicidal activity against Pseudoperonospora cubensis assessed as cucumber downy mildew disease control at 7.8 ppm foliar application 24 hr before inoculation onto the abaxial(untreated) surface of leaf by preventive manner
Podosphaera fuliginea [21] = assay: Fungicidal activity against Podosphaera fuliginea assessed as cucumber powdery mildew control at 31.3 ppm foliar application 24 hr before inoculation at 23 +/- 2 degC by preventive manner

Row | Structure (SMILES) | Activity (Pyricularia oryzae [2]) [%] | Activity (Podosphaera fuliginea [4]) [%] | Activity [5] [%] | Activity [6] [%] | Activity (Thanatephorus cucumeris [7]) [%] | Activity (Podosphaera fuliginea [9]) [%] | Activity (Botrytis cinerea [10]) [%] | Activity [11] [%] | Activity (Pyricularia oryzae [12]) [%] | Activity [14] [%] | further results
1 | CNC(=O)/C(=N/OC)c1ccccc1COc1c(C)cccc1C | 90 | 90 | 90 | <90 | <90 |  |  |  |  |  | Activity (Botrytis cinerea [1]): 90%; Activity [3]: <90%
2 | CNC(=O)/C(=N/OC)c1ccccc1COc1cc(F)cc(F)c1 |  |  |  |  | 90 | 90 | 90 | 90 | 90 |  | Activity [8]: 90%; Activity [13]: 90%
3 | CNC(=O)/C(=N/OC)c1ccccc1COc1cc(Cl)c(Cl)cc1Cl |  |  |  |  |  |  | 90 |  | 90 | 90 | Activity (Thanatephorus cucumeris [15]): 90%; Activity [16]: 90%; Activity (Podosphaera fuliginea [17]): 90%; Activity [13]: 90%
4 | CNC(=O)/C(=N/OC)c1ccccc1COc1c(C)ccc(C)c1C | 90 | <90 | <90 | 90 | <90 |  |  |  |  |  | Activity (Botrytis cinerea [1]): <90%; Activity [3]: <90%
5 | CNC(=O)/C(=N/OC)c1ccccc1COc1ccc(Cl)c(Cl)c1 |  |  |  |  | <90 |  | 90 | 90 | 90 |  | Activity [18]: 90%; Activity (Podosphaera fuliginea [17]): 90%; Activity [13]: 90%
6 | CNC(=O)/C(=N/OC)c1ccccc1COc1ccc(C)cc1 |  |  |  | <90 | <90 |  | 90 |  | 90 | 90 | Activity [8]: 90%; Activity (Podosphaera fuliginea [17]): 90%
7 | CNC(=O)/C(=N/OC)c1ccccc1COc1cc(C)c(Cl)c(C)c1 |  |  |  | 90 | <90 | 90 | 90 |  | 90 | 90 | Activity [18]: 90%
8 | CNC(=O)/C(=N/OC)c1ccccc1COc1ccc(C(=O)c2ccccc2)cc1 | 90 | <90 | 90 | <90 | <90 |  | 90 |  |  |  | 
9 | CNC(=O)/C(=N/OC)c1ccccc1COc1cc(Cl)cc(Cl)c1Cl | <90 |  |  | <90 | <90 |  | 90 |  |  | 90 | Activity [16]: 90%; Activity (Podosphaera fuliginea [17]): 90%
10 | C#CCOc1cccc(OCc2ccccc2/C(=N\OC)C(=O)NC)c1 | 90 | 90 | 90 | 90 | <90 |  |  |  |  | 90 | Activity (Botrytis cinerea [19]): 90%
11 | CNC(=O)/C(=N/OC)c1ccccc1COc1c(C)cc(C)cc1C | 90 | 90 | 90 | <90 | <90 |  |  | 90 |  |  | Activity (Botrytis cinerea [19]): 90%
12 | CNC(=O)/C(=N/OC)c1ccccc1COc1ccccc1Cl |  |  |  | 90 | 90 | 90 | 90 | 90 | 90 |  | Activity [8]: 90%
13 | CNC(=O)/C(=N/OC)c1ccccc1COc1ccc(C(F)(F)F)cc1 |  |  |  |  | <90 | 90 | 90 | 90 | 90 |  | Activity [20]: 90%; Activity [18]: 90%
14 | C#CCOc1ccc(OCc2ccccc2/C(=N\OC)C(=O)NC)cc1 |  |  | 90 |  | <90 | 90 | 90 | 90 | 90 |  | Activity [13]: 90%
15 | CNC(=O)/C(=N/OC)c1ccccc1COc1cccc(F)c1 |  |  |  |  | 90 |  |  | 90 | 90 |  | Activity [20]: 90%; Activity [18]: 90%; Activity (Botrytis cinerea [19]): 90%; Activity (Podosphaera fuliginea [21]): 90%
